Where two headings read alike, the source gives them in different places.
How the values were obtained:
[1] = Solubility at tested concentrations (fragment library screening); format: physicochemical
Source text: Supplement IENZ_A_2149745_SM2502.zip/DDlB_CDR05_SI_20221103.xlsx, sheet "Fragment library screening" | column: Solubility at tested concentrations

[2] = target: T1, E. coli DdlB enzyme (D-alanine:D-alanine ligase) (Escherichia coli, UniProt P07862); assay: biochemical; conditions: read-out: DdlB RA; for remaining activity at 2100 µM: tested concentration 2.1 mM; for remaining activity at 1900 µM: tested concentration 1.9 mM; for remaining activity at 2000 µM: tested concentration 2.0 mM; for remaining activity at 2300 µM: tested concentration 2.3 mM; for remaining activity at 1700 µM: tested concentration 1.7 mM; for remaining activity at 1800 µM: tested concentration 1.8 mM; for remaining activity at 2200 µM: tested concentration 2.2 mM; for remaining activity at 2500 µM: residual activity of DdlB, fragment library screening, tested concentration 2.5 mM; for remaining activity at 2400 µM: tested concentration 2.4 mM
T1 construct: made in house; host or cells: E. coli

Oc1cccc2ccc(Nc3ccccn3)nc12 [Compound 0422-0008]
Solubility at tested concentrations ([1]; tested concentration 2.1 mM): not soluble | remaining activity at 2100 µM ([2]; residual activity): 31%

Oc1ccccc1/N=C/c1ccc2cccc(O)c2n1 [Compound 0422-0036]
Solubility at tested concentrations ([1]; tested concentration 1.9 mM): not soluble | remaining activity at 1900 µM ([2]; residual activity): 79%

Oc1c(Cl)cc(Cl)c2ccc(Cl)nc12 [Compound 0422-0102]
Solubility at tested concentrations ([1]; tested concentration 2.0 mM): not soluble | remaining activity at 2000 µM ([2]; residual activity): 99%

CCc1cccc2c(=O)c(C(=O)O)c[nH]c12 [Compound 2595-1123]
Solubility at tested concentrations ([1]; tested concentration 2.3 mM): not soluble | remaining activity at 2300 µM ([2]; residual activity): 47%

Oc1nc(-c2ccc(Cl)cc2)c2ccccc2n1 [Compound 3740-0004]
Solubility at tested concentrations ([1]; tested concentration 1.9 mM): not soluble | remaining activity at 1900 µM ([2]; residual activity): 83%

Cc1ccc(-c2nc(O)nc3ccccc23)cc1 [Compound 3740-0006]
Solubility at tested concentrations ([1]; tested concentration 2.1 mM): not soluble | remaining activity at 2100 µM ([2]; residual activity): 83%

O=C(N/N=C/c1ccc2cccc(O)c2n1)c1ccccc1 [Compound 4539-0001]
Solubility at tested concentrations ([1]; tested concentration 1.7 mM): not soluble | remaining activity at 1700 µM ([2]; residual activity): 49%

Oc1cccc2ccc(/C=C/c3ccc4c(c3)OCO4)nc12 [Compound 4896-3346]
Solubility at tested concentrations ([1]; tested concentration 1.7 mM): not soluble | remaining activity at 1700 µM ([2]; residual activity): 139%

Oc1cccc(/C=C/c2ccc3cccc(O)c3n2)c1 [Compound 5617-0440]
Solubility at tested concentrations ([1]; tested concentration 1.9 mM): not soluble | remaining activity at 1900 µM ([2]; residual activity): 55%

O=C(Cc1ccc(Cl)cc1)Nc1nnc[nH]1 [Compound 7881-1517]
Solubility at tested concentrations ([1]; tested concentration 2.1 mM): not soluble | remaining activity at 2100 µM ([2]; residual activity): 79%

O=C(Cc1ccccc1[N+](=O)[O-])Nc1nnc[nH]1 [Compound 7882-1936]
Solubility at tested concentrations ([1]; tested concentration 2.0 mM): not soluble | remaining activity at 2000 µM ([2]; residual activity): 118%

Cc1ccc(-c2csc(NC(=O)CO)n2)cc1 [Compound 8005-2972]
Solubility at tested concentrations ([1]; tested concentration 2.0 mM): not soluble | remaining activity at 2000 µM ([2]; residual activity): 88%

O=C(O)c1ccc(N2Cc3ccccc3C2)cc1O [Compound 8005-9285]
Solubility at tested concentrations ([1]; tested concentration 2.0 mM): not soluble | remaining activity at 2000 µM ([2]; residual activity): 61%

O=C(N/N=C/c1ccc2cccc(O)c2n1)c1ccco1 [Compound 8006-5465]
Solubility at tested concentrations ([1]; tested concentration 1.8 mM): not soluble | remaining activity at 1800 µM ([2]; residual activity): 72%

O=C(N/N=C/c1ccc2cccc(O)c2n1)c1ccncc1 [Compound 8006-6830]
Solubility at tested concentrations ([1]; tested concentration 1.7 mM): not soluble | remaining activity at 1700 µM ([2]; residual activity): 71%

Nc1cc(Br)cc2cccnc12 [Compound 8009-3726]
Solubility at tested concentrations ([1]; tested concentration 2.2 mM): not soluble | remaining activity at 2200 µM [2]: 89%

Cc1c(Cl)ccc(S(N)(=O)=O)c1Cl [Compound 8011-1291]
Solubility at tested concentrations ([1]; tested concentration 2.1 mM): not soluble | remaining activity at 2100 µM [2]: 69%

O=[N+]([O-])c1cc(Cl)c2cccnc2c1O [Compound 8011-4676]
Solubility at tested concentrations ([1]; tested concentration 2.2 mM): not soluble | remaining activity at 2200 µM ([2]; residual activity): 49%

Cc1cc(C)c2c(=O)[nH]n(C3CCCCCC3)c2n1 [Compound 8016-0079]
Solubility at tested concentrations ([1]; tested concentration 2.3 mM): not soluble | remaining activity at 2300 µM [2]: 81%

Clc1ncnc2[nH]ccc12 [FLD154]
remaining activity at 2500 µM [2]: 95%

O=C1Cc2cc([N+](=O)[O-])ccc2N1 [FLD155]
remaining activity at 2500 µM [2]: 99%

O=C(O)Cc1c(Cl)cccc1Cl [FLD156]
remaining activity at 2500 µM [2]: 100%

NCc1nc2ccccc2[nH]1 [FLD157]
remaining activity at 2500 µM [2]: 105%

Fc1cc(Br)ccc1CN1CCCNCC1 [FLD158]
remaining activity at 2500 µM [2]: 63%

COc1ccc(Br)cc1OC [FLD159]
remaining activity at 2500 µM [2]: 98%

OCCc1ccc(Cl)cc1 [FLD160]
remaining activity at 2500 µM [2]: 92%

CCc1cccc(N)n1 [FLD162]
remaining activity at 2500 µM [2]: 100%

N#Cc1ccc(F)c(F)c1 [FLD163]
remaining activity at 2500 µM [2]: 95%

CCOC(=O)Cc1ccccn1 [FLD164]
remaining activity at 2500 µM [2]: 97%

Cc1ccc(O)c(C)c1 [FLD165]
remaining activity at 2500 µM [2]: 91%

c1ccc2c(c1)CCNC2 [FLD166]
remaining activity at 2500 µM [2]: 77%

Cc1cc(C)nc(C)c1 [FLD167]
remaining activity at 2500 µM [2]: 95%

CC(O)c1ccccc1 (stereo not shown) [FLD168]
remaining activity at 2500 µM [2]: 98%

Brc1ccccn1 [FLD169]
remaining activity at 2500 µM [2]: 100%

NCCc1ccc(Br)cc1 [FLD170]
remaining activity at 2500 µM [2]: 93%

Cc1nc2ccccc2nc1O [FLD171]
remaining activity at 2500 µM [2]: 95%

Oc1c(F)c(F)c(F)c(F)c1F [FLD172]
remaining activity at 2500 µM [2]: 92%

Oc1cccc(C(F)(F)F)c1 [FLD173]
remaining activity at 2500 µM [2]: 91%

NCc1ccccc1Cl [FLD174]
remaining activity at 2500 µM [2]: 100%

NCCc1cccc(F)c1 [FLD175]
remaining activity at 2500 µM [2]: 94%

CC(C)c1cccc(O)c1 [FLD176]
remaining activity at 2500 µM [2]: 95%

OCCc1ccccc1C(F)(F)F [FLD177]
remaining activity at 2500 µM [2]: 100%

CCOC(=O)c1cccnc1C [FLD178]
remaining activity at 2500 µM [2]: 99%

CNc1ccccc1N [FLD179]
remaining activity at 2500 µM [2]: 84%

N#Cc1ccccn1 [FLD180]
remaining activity at 2500 µM [2]: 98%

CCOC(=O)C(C#N)c1ccccc1 (stereo not shown) [FLD181]
remaining activity at 2500 µM [2]: 89%

C#Cc1cccc(OC)c1 [FLD182]
remaining activity at 2500 µM [2]: 91%

N#CCc1ccsc1 [FLD183]
remaining activity at 2500 µM [2]: 100%

Clc1nccs1 [FLD184]
remaining activity at 2500 µM [2]: 98%

COc1ccncc1 [FLD185]
remaining activity at 2500 µM [2]: 99%

CC1=NCCC1 [FLD186]
remaining activity at 2500 µM [2]: 71%

CC1=NCCS1 [FLD187]
remaining activity at 2500 µM [2]: 100%

CC1=NC(C)(C)CO1 [FLD188]
remaining activity at 2500 µM [2]: 91%

CCOC(=O)N1CCC(N)CC1 [FLD189]
remaining activity at 2500 µM [2]: 98%

CC(=O)N1CCC(=O)CC1 [FLD190]
remaining activity at 2500 µM [2]: 100%

CCOC(=O)N1CCNCC1 [FLD191]
remaining activity at 2500 µM [2]: 100%

CCNCc1ccncc1 [FLD193]
remaining activity at 2500 µM [2]: 91%

Cc1ncc(CO)c(CO)c1O [FLD194]
remaining activity at 2500 µM [2]: 99%

Cc1cc(C)n(CO)n1 [FLD195]
remaining activity at 2500 µM [2]: 97%

N#Cc1cccnc1N [FLD196]
remaining activity at 2500 µM [2]: 99%

OCc1ccncc1 [FLD197]
remaining activity at 2500 µM [2]: 100%

Cn1c(C(=O)O)cc2ccccc21 [FLD198]
remaining activity at 2500 µM [2]: 79%

Nc1cccc(F)n1 [FLD199]
remaining activity at 2500 µM [2]: 91%

OCc1cccs1 [FLD200]
remaining activity at 2500 µM [2]: 95%

Cc1ncc(CO)c(C2CCCN(C(=O)C(C)C)C2)n1 (stereo not shown) [SA04-1071]
remaining activity at 2200 µM ([2]; residual activity): 95%

CCS(=O)(=O)N1CC2(CC(N3CCCC3)CO2)C1 (stereo not shown) [SA46-1771]
remaining activity at 1800 µM ([2]; residual activity): 90%

C1CNCC(CCc2noc(C3CCOCC3)n2)C1 (stereo not shown) [SA66-1056]
remaining activity at 1800 µM ([2]; residual activity): 94%

CC(=O)N1CCC(CCc2noc(C)n2)C1 (stereo not shown) [SA67-1016]
remaining activity at 2700 µM ([2]; tested concentration 2.7 mM): 93%

CC(=O)N1CC(=O)N(CCc2ccccc2)CC(O)C1 (stereo not shown) [SA85-1024]
remaining activity at 2200 µM ([2]; residual activity): 95%

CC(C)CN1CC(O)CN(C(=O)C2CCC2)CC1=O (stereo not shown) [SA85-1056]
remaining activity at 2200 µM ([2]; residual activity): 97%

O=C(NCc1ccccc1)C1(F)CCNC1 (stereo not shown) [SA94-0001]
remaining activity at 1900 µM [2]: 97%

Cc1n[nH]c([C@@H]2CC(F)(F)CN2C2CCCCCC2)n1 [SB35-1022]
remaining activity at 1900 µM ([2]; residual activity): 97%

CC(C)CCN1C[C@@H]2CN(C)C(=O)[C@H](C)N2C1=O [SB41-0167]
remaining activity at 2400 µM [2]: 85%

CC(=O)N1CC(c2nc(C)no2)C2(CNC2)C1 (stereo not shown) [SB57-1191]
remaining activity at 2200 µM [2]: 69%

O=C1C[C@H]2CN(S(=O)(=O)c3ccccc3)C[C@H]2CN1 [SB76-0562]
remaining activity at 2100 µM ([2]; residual activity): 86%

Cc1nc(CCOC2CCCNC2)no1 (stereo not shown) [SC04-0106]
remaining activity at 2400 µM [2]: 95%

O=C1Cn2nnc(CNC(=O)NC3CCCC3)c2CN1 [SC45-0107]
remaining activity at 2200 µM ([2]; residual activity): 93%

O=C(C1CC1)N1CC(c2n[nH]c(C3CC3)n2)C2(CCC2)C1 (stereo not shown) [SC70-0192]
remaining activity at 1700 µM ([2]; residual activity): 95%

COCCn1nc(-c2cocn2)c2c1CCN(C(C)C)C2 [SD01-0107]
remaining activity at 1700 µM ([2]; residual activity): 92%

Cn1nc(CCC(=O)NC2CCCC2)c2c1CCOC2 [SD48-0064]
remaining activity at 2200 µM ([2]; residual activity): 102%

Cn1nc(CCC(=O)N2CCNC(=O)C2)c2c1CCOC2 [SD48-0069]
remaining activity at 2100 µM ([2]; residual activity): 99%
